Patent publication US7217730B2, “Method for the use of pyranoindole derivatives to treat infection with Hepatitis C virus” (Wyeth, priority 2002, dated 2007)

Target: T1, NS5B from the BK strain (genotype 1b) (Hepatitis C virus genotype 1b, UniProt P26663)
T1 construct: NS5B from the BK strain (genotype 1b) is expressed in E. coli as a protein in which the 21 C-terminal amino acids are replaced; made in house; host or cells: E. coli
Assay: Hepatitis C polymerase inhibition, NS5B BK strain, 33P-GTP filter assay
Assay type: biochemical
Details: Table 1A; for IC50: NS5B BK strain, read-out: HCV pol BK IC50; for inhibition at 20 µM: read-out: HCV pol % inh at 20 μM
How it was run: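 E. coli-expressed NS5B (BK, genotype 1b) with the 21 C-terminal residues replaced by a linker-His6 tag was preincubated with compound for 15 min at room temperature. It then extended a hairpin-primed heteropolymeric RNA (~3 nM, ~760 nt product) with α-[33P]-GTP for 2 h at 22–25° C. The reaction was stopped with EDTA, and incorporated label was counted on filters.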

T1 sequence (P26663 2420-2989): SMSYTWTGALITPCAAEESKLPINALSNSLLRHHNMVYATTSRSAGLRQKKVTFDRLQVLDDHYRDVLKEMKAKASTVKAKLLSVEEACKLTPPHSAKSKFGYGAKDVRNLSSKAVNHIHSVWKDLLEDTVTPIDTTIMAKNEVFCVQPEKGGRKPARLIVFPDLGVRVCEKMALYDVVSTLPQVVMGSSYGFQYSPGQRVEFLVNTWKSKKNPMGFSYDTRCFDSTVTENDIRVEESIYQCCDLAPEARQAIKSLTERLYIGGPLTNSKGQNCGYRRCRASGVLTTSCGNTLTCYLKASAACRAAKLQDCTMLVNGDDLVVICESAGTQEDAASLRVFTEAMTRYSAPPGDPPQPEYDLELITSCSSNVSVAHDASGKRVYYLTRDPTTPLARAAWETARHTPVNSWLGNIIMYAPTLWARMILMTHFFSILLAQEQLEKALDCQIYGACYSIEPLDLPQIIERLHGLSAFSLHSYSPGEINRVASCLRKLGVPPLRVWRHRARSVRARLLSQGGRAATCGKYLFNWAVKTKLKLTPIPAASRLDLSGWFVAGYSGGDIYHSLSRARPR

| Molecule | HCV pol % inh at 20 μM (20 μM compound) | IC50 | inhibition at 20 µM (20 μM compound) |
| --- | --- | --- | --- |
| (5-bromo-8-fluoro-1,6-dimethyl-1,3,4,9-tetrahydropyrano[3,4-b]indol-1-yl)acetic acid [Example 163] | 28% | > 10 µM | – |
| CCC1(CC(=O)O)OCCc2c1[nH]c1c(C(F)(F)F)cccc21 (centres unmarked) [Example 116, [1-ethyl-8-(trifluoromethyl)-1,3,4,9-tetrahydropyrano[3,4-b]indol-1-yl]acetic acid] | – | > 20 µM | 34% |
| O=C(O)CC1(c2ccc(C(=O)O)cc2)OCCc2c1[nH]c1c(Cl)cc(Cl)cc21 (centres unmarked) [Example 106, 4-[1-(carboxymethyl)-6,8-dichloro-1,3,4,9-tetrahydropyrano[3,4-b]indol-1-yl]benzoic acid] | – | 2.3 µM | 71% |
| CCCCC1(CC(=O)O)OCCc2c1[nH]c1c(F)cc(F)c(C#N)c21 (centres unmarked) [Example 196, (1-butyl-5-cyano-6,8-difluoro-1,3,4,9-tetrahydropyrano[3,4-b]indol-1-yl)acetic acid] | – | 1.2 µM | 77% |
| CCCC1(CC(=O)O)OCCc2c1[nH]c1cccc(-c3ccccc3C(F)(F)F)c21 (centres unmarked) [Example 45, (1-propyl-5-[2-(trifluoromethyl)phenyl]-1,3,4,9-tetrahydropyrano[3,4-b]indol-1-yl)acetic acid] | – | > 20 µM | 14% |
| CCCC1(CC(=O)O)OCCc2c1[nH]c1c(C)ccc(C(=O)N(C)C)c21 (centres unmarked) [Example 227, (5-dimethylcarbamoyl-8-Methyl-1-propyl-1,3,4,9-tetrahydropyrano[3,4-b]indol-1-yl)acetic acid] | – | > 20 µM | – |
| Cc1cc(Cl)c2[nH]c3c(c2c1Br)CCOC3(CC(=O)O)c1ccc(C(=O)O)cc1 (centres unmarked) [Example 180, 4-[5-bromo-1-(carboxymethyl)-8-chloro-6-methyl-1,3,4,9-tetrahydropyrano[3,4-b]indol-1-yl]benzoic acid] | – | 0.81 µM | 92% |
| CCCC1(CC(=O)O)OCCc2c1[nH]c1cccc(Cl)c21 (centres unmarked) [Example 14, (5-Chloro-1-propyl-1,3,4,9-tetrahydropyrano[3,4-b]indol-1-yl)acetic acid] | – | 11 µM | 75% |
| CCCC1(CC(=O)O)OCCc2c1[nH]c1c(F)cc(F)c(Br)c21 (centres unmarked) [Example 190, (5-bromo-6,8-difluoro-1-propyl-1,3,4,9-tetrahydropyrano[3,4-b]indol-1-yl)acetic acid] | – | 0.2 µM | 94% |
| CCCC1(CC(=O)O)OCCc2c1[nH]c1cccc(-c3cccs3)c21 (centres unmarked) [Example 37, (1-propyl-5-thien-2-yl-1,3,4,9-tetrahydropyrano[3,4-b]indol-1-yl)acetic acid] | – | > 20 µM | 28% |
| Cc1cc(F)c2[nH]c3c(c2c1C#N)CCOC3(CC(=O)O)c1ccccc1 (centres unmarked) [Example 171, (5-cyano-8-fluoro-6-methyl-1-phenyl-1,3,4,9-tetrahydropyrano[3,4-b]indol-1-yl)acetic acid] | – | > 10 µM | 3% |
| N#Cc1cccc2[nH]c3c(c12)CCOC3(CC(=O)O)c1ccccc1F (centres unmarked) [Example 66, [5-cyano-1-(2-fluorophenyl)-1,3,4,9-tetrahydropyrano[3,4-b]indol-1-yl]acetic acid] | – | > 20 µM | 28% |
| Cc1ccc(F)c2c3c([nH]c12)C(CC(=O)O)(C(C)C)OCC3 (centres unmarked) [Example 143, (5-fluoro-1-isopropyl-8-methyl-1,3,4,9-tetrahydropyrano[3,4-b]indol-1-yl)acetic acid] | – | 16.5 µM | 56% |
| CCCCC1(CC(=O)O)OCCc2c1[nH]c1c(Cl)cc(Cl)cc21 (centres unmarked) [Example 103, (1-butyl-6,8-dichloro-1,3,4,9-tetrahydropyrano[3,4-b]indol-1-yl)acetic acid] | – | 14.4 µM | 60% |
| O=C(O)CC1(c2ccccc2F)OCCc2c1[nH]c1cccc(Br)c21 (centres unmarked) [Example 30, [5-bromo-1-(2-fluorophenyl)-1,3,4,9-tetrahydropyrano[3,4-b]indol-1-yl]acetic acid] | – | > 20 µM | < 5% |
